US20190233884A1 (University of Southern California, priority 2016, published 2019)

Test system: patients with refractory metastatic colorectal cancer (mCRC)
Experiment: PFS, OS and disease control in the training (evaluation) cohort of refractory mCRC patients receiving TAS-102 (n=52, Japan), by baseline characteristics, SNP genotype and toxicity
Assay type: in vivo, human
Details: evaluation cohort
Description: All patients underwent the treatment in salvage-line setting. […]
(§1) Genomic DNA was extracted from peripheral whole blood in patients of all cohorts using the QIAmp Kit (Qiagen, Valencia, Calif., USA) according to the manufacturer's protocol (www.qiagen.com). The candidate SNPs were genotyped using PCR-based direct DNA sequence analysis by ABI 3100A Capillary Genetic Analyzer and Sequencing Scanner v1.0 (Applied Biosystems). Amplification of extracted DNA was carried out using both forward and reverse primers for each gene polymorphism as shown in Table 1. […] The investigators analyzing SNPs were blinded to the clinical data of the study patients.
The primary endpoint in this study was progression-free survival (PFS), and the secondary endpoints were overall survival (OS) and disease control rate (DCR). PFS was calculated from the date of starting treatment to the first observation of disease progression or death from any cause. If a patient had no disease progression or death, PFS was censored at the date of last follow up. OS was calculated from the date of starting treatment until the date of death from any cause or the date of the last follow-up, at which point OS was censored. The disease control rate (DCR) was defined as the proportion of patients who achieved a stable disease (SD) or […] according to RECISTv1.1. Chi-square test was used to examine the difference in baseline patient characteristics among the three cohorts. Allelic distribution of all SNPs by ethnicity for deviation from Hardy-Weinberg equilibrium and the allelic frequencies of SNPs were tested using the Chi-square tests with one degree of freedom. The associations between candidate SNPs and disease control, and toxicities were examined using contingency tables and Fisher's exact test. The associations of SNPs with PFS and OS were analysed using Kaplan-Meier curves and the log-rank test. Because the true mode of inheritance of candidate SNPs was not established yet, a codominant or dominant genetic model if appropriate was considered.
All patients underwent the treatment in salvage-line setting. […] In all patients, adverse events were graded according to the Common Terminology Criteria for Adverse Events, version 4.0. […]
as §1, with “tested” for “genotyped”, “Biosystems).” for “Biosystems). Amplification of extracted DNA was carried out using both forward and reverse primers for each gene polymorphism as shown in Table 1.”, “data.” for “data of the study patients.”
The primary endpoint in this study was progression-free survival (PFS), and the secondary endpoints were overall survival (OS) and disease control rate (DCR).

[1] = CHEK2 rs2267130 Any C vs T/T (Ref.), multivariable
[2] = CHEK2 rs2267130 Any C vs T/T (Ref.), univariate
[3] = CHEK2 rs2267130 C/C vs T/T (Ref.), multivariable
[4] = CHEK2 rs2267130 C/C vs T/T (Ref.), univariate
[5] = CHEK2 rs2267130 T/C vs T/T (Ref.), multivariable
[6] = CHEK2 rs2267130 T/C vs T/T (Ref.), univariate
[7] = Che1 rs1564796 T/C and C/C grouped together
[8] = FANCD2 rs6792811 G/A and G/G grouped together

Trifluridine/tipiracil [TAS-102]
PD, patients n (%) (BRCA1 rs16941 T/C): 15 (68%) | Disease Control Rate SD, patients n (%) (BRCA1 rs16941 T/T): 7 (37%) | PD, patients n (%) (BRCA1 rs16941 T/T): 12 (63%) | Disease Control Rate SD, patients n (%) (BRCA1 rs799917 A/A): 1 (20%) | PD, patients n (%) (BRCA1 rs799917 A/A): 4 (80%) | Disease Control Rate SD, patients n (%) (BRCA1 rs799917 Any A): 8 (30%) | PD, patients n (%) (BRCA1 rs799917 Any A): 19 (70%) | Disease Control Rate SD, patients n (%) (BRCA1 rs799917 G/A): 7 (32%) | PD, patients n (%) (BRCA1 rs799917 G/A): 15 (68%) | Disease Control Rate SD, patients n (%) (BRCA1 rs799917 G/G): 7 (37%) | PD, patients n (%) (BRCA1 rs799917 G/G): 12 (63%) | Disease Control Rate SD, patients n (%) (BRCA2 rs144848 A/A): 8 (29%) | PD, patients n (%) (BRCA2 rs144848 A/A): 20 (71%) | Disease Control Rate SD, patients n (%) (BRCA2 rs144848 A/C): 6 (46%) | PD, patients n (%) (BRCA2 rs144848 A/C): 7 (54%) | Disease Control Rate SD, patients n (%) (BRCA2 rs144848 Any C): 7 (39%) | PD, patients n (%) (BRCA2 rs144848 Any C): 11 (61%) | Disease Control Rate SD, patients n (%) (BRCA2 rs144848 C/C): 1 (20%) | PD, patients n (%) (BRCA2 rs144848 C/C): 4 (80%) | Disease Control CR/PR/SD, patients n (%) (CHEK2 rs2267130 Any C): 12 (46%) | Median OS (95% CI) (CHEK2 rs2267130 Any C): 8.3 (5.7, 15.6+) months | Median PFS (95% CI) (CHEK2 rs2267130 Any C): 3.4 (2.1, 4.6) months | PD, patients n (%) (CHEK2 rs2267130 Any C): 14 (54%) | HR OS (95% CI) [1]: 0.71 (0.29, 1.77) | HR PFS (95% CI) [1]: 0.49 (0.26, 0.94) | HR OS (95% CI) [2]: 0.71 (0.29, 1.74) | HR PFS (95% CI) [2]: 0.48 (0.25, 0.90) | Disease Control CR/PR/SD, patients n (%) (CHEK2 rs2267130 C/C): 3 (43%) | Median OS (95% CI) (CHEK2 rs2267130 C/C): 5.7 (1.4, 10.7+) months | Median PFS (95% CI) (CHEK2 rs2267130 C/C): 2.7 (0.9, 4.6+) months | PD, patients n (%) (CHEK2 rs2267130 C/C): 4 (57%) | HR OS (95% CI) [3]: 1.31 (0.39, 4.42) | HR PFS (95% CI) [3]: 0.59 (0.23, 1.51) | HR OS (95% CI) [4]: 1.21 (0.37, 3.99) | HR PFS (95% CI) [4]: 0.62 (0.25, 1.58) | Disease Control CR/PR/SD, patients n (%) (CHEK2 rs2267130 T/C): 9 (47%) | Median OS (95% CI) (CHEK2 rs2267130 T/C): 12.4 (6.3, 15.6+) months | Median PFS (95% CI) (CHEK2 rs2267130 T/C): 3.7 (2.1, 5.2) months | PD, patients n (%) (CHEK2 rs2267130 T/C): 10 (53%) | HR OS (95% CI) [5]: 0.56 (0.20, 1.55) | HR PFS (95% CI) [5]: 0.46 (0.22, 0.94) | HR OS (95% CI) [6]: 0.59 (0.22, 1.60) | HR PFS (95% CI) [6]: 0.44 (0.22, 0.89) | Disease Control CR/PR/SD, patients n (%) (CHEK2 rs2267130 T/T): 3 (15%) | Median OS (95% CI) (CHEK2 rs2267130 T/T): 8.1 (4.4, 8.7+) months | Median PFS (95% CI) (CHEK2 rs2267130 T/T): 2.1 (1.6, 2.9) months | PD, patients n (%) (CHEK2 rs2267130 T/T): 17 (85%) | PFS (CHEK2 rs2267130 T/T): 2.1 months | Disease Control Rate SD, patients n (%) (CHEK2 rs22236142 Any C): 7 (27%) | PD, patients n (%) (CHEK2 rs22236142 Any C): 19 (73%) | Disease Control Rate SD, patients n (%) (CHEK2 rs22236142 C/C): 2 (25%) | PD, patients n (%) (CHEK2 rs22236142 C/C): 6 (75%) | Disease Control Rate SD, patients n (%) (CHEK2 rs22236142 G/C): 5 (28%) | PD, patients n (%) (CHEK2 rs22236142 G/C): 13 (72%) | Disease Control Rate SD, patients n (%) (CHEK2 rs22236142 G/G): 8 (40%) | PD, patients n (%) (CHEK2 rs22236142 G/G): 12 (60%) | Disease Control Rate SD, patients n (%) (Che1 rs1045056 T/C): 2 (22%) | PD, patients n (%) (Che1 rs1045056 T/C): 7 (78%) | Disease Control Rate SD, patients n (%) (Che1 rs1045056 T/T): 13 (35%) | PD, patients n (%) (Che1 rs1045056 T/T): 24 (65%) | Disease Control Rate SD, patients n (%) [7]: 3 (25%) | PD, patients n (%) [7]: 8 (67%) | Disease Control Rate SD, patients n (%) (Che1 rs1564796 T/T): 12 (34%) | PD, patients n (%) (Che1 rs1564796 T/T): 23 (66%) | Disease Control Rate SD, patients n (%) (FANCD2 rs2272125 T/G): 3 (50%) | PD, patients n (%) (FANCD2 rs2272125 T/G): 3 (50%) | Disease Control Rate SD, patients n (%) (FANCD2 rs2272125 T/T): 12 (30%) | PD, patients n (%) (FANCD2 rs2272125 T/T): 28 (70%) | Disease Control Rate SD, patients n (%) (FANCD2 rs6792811 A/A): 10 (33%) | PD, patients n (%) (FANCD2 rs6792811 A/A): 20 (67%) | Disease Control Rate SD, patients n (%) [8]: 5 (29%) | PD, patients n (%) [8]: 11 (71%) | Disease Control Rate SD, patients n (%) (PCNA rs25406 A/A): 4 (36%) | PD, patients n (%) (PCNA rs25406 A/A): 7 (64%) | Disease Control Rate SD, patients n (%) (PCNA rs25406 Any A): 12 (44%) | PD, patients n (%) (PCNA rs25406 Any A): 15 (56%) | Disease Control Rate SD, patients n (%) (PCNA rs25406 G/A): 8 (50%) | PD, patients n (%) (PCNA rs25406 G/A): 8 (50%) | Disease Control Rate SD, patients n (%) (PCNA rs25406 G/G): 3 (19%) | PD, patients n (%) (PCNA rs25406 G/G): 13 (81%) | Disease Control Rate SD, patients n (%) (Pin1 rs2233678 G/C): 0% | PD, patients n (%) (Pin1 rs2233678 G/C): 2 (100%) | Disease Control Rate SD, patients n (%) (Pin1 rs2233678 G/G): 15 (34%) | PD, patients n (%) (Pin1 rs2233678 G/G): 29 (66%) | Disease Control Rate SD, patients n (%) (Pin1 rs2233679 Any T): 11 (38%) | PD, patients n (%) (Pin1 rs2233679 Any T): 18 (62%) | Disease Control Rate SD, patients n (%) (Pin1 rs2233679 C/C): 4 (24%) | PD, patients n (%) (Pin1 rs2233679 C/C): 13 (76%) | Disease Control Rate SD, patients n (%) (Pin1 rs2233679 C/T): 8 (36%) | PD, patients n (%) (Pin1 rs2233679 C/T): 14 (64%) | Disease Control Rate SD, patients n (%) (Pin1 rs2233679 T/T): 3 (43%)
